Experimental data published in ChEMBL document CHEMBL1201862, “PubChem BioAssay data set” (2004).
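A five-concentration, 48-hour dose response in 96-well plates underlies each endpoint, interpolated linearly between surrounding concentrations. GI50 marks 50% less growth.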 Active and inactive are the calls of the source. Cut-off read from the data, not from the text of the source: active = GI50 up to about 1.1 µM and inactive = higher.

Tests used:
Experiment in all cases: NCI anticancer screen, dose series, 48 h
BT-549 = tested on: BT-549
DU-145 = tested on: DU-145
EKVX = tested on: EKVX
HT-29 = tested on: HT-29
IGROV-1 = tested on: IGROV-1
M14 = tested on: M14
MDA-MB-435 = tested on: MDA-MB-435
NCI-H522 = tested on: NCI-H522
OVCAR-4 = tested on: OVCAR-4
OVCAR-8 = tested on: OVCAR-8
PC-3 = tested on: PC-3
RXF 393 = tested on: RXF 393
SF-268 = tested on: SF-268
SF-295 = tested on: SF-295
UACC-257 = tested on: UACC-257
UO-31 = tested on: UO-31
CCRF-CEM = tested on: CCRF-CEM
COLO 205 = tested on: COLO 205
KM12 = tested on: KM12
SK-OV-3 = tested on: SK-OV-3

Measured: GI50

COC(=O)c1cc(O)nc(O)n1
inactive: BT-549 > 100 µM | DU-145 > 100 µM | EKVX > 100 µM | HT-29 > 100 µM | IGROV-1 > 100 µM | M14 > 100 µM | MDA-MB-435 > 100 µM | NCI-H522 > 100 µM | OVCAR-4 > 100 µM | OVCAR-8 > 100 µM | PC-3 > 100 µM | RXF 393 > 100 µM | SF-268 > 100 µM | SF-295 > 100 µM | UACC-257 > 100 µM | UO-31 > 100 µM

O=C(CNc1c(Cl)cccc1Cl)NC1C=Cc2ccc(S(=O)(=O)Nc3c(Cl)cccc3Cl)cc2C1=O (stereo not drawn)
inactive: BT-549 60.7 µM | CCRF-CEM 53.2 µM | COLO 205 > 100 µM | DU-145 > 100 µM | EKVX 17.7 µM | HT-29 50.2 µM | IGROV-1 2.4 µM | KM12 35.9 µM | M14 > 100 µM | MDA-MB-435 > 100 µM | NCI-H522 30.5 µM | OVCAR-4 > 100 µM | OVCAR-8 > 100 µM | PC-3 23.7 µM | SF-268 48.3 µM | SF-295 70.8 µM | SK-OV-3 > 100 µM | UACC-257 > 100 µM | UO-31 26.9 µM

O=C(Nc1ccc2[nH]c(C(=O)N3CC(CCl)c4c3cc([N+](=O)[O-])c3ccccc43)cc2c1)Nc1ccc2[nH]c(C(=O)N3CC(CCl)c4c3cc([N+](=O)[O-])c3ccccc43)cc2c1 (stereo not drawn)
inactive: BT-549 > 100 µM | CCRF-CEM 22.4 µM | COLO 205 > 100 µM | DU-145 > 100 µM | EKVX > 100 µM | KM12 > 100 µM | M14 31.3 µM | MDA-MB-435 > 100 µM | NCI-H522 > 100 µM | OVCAR-4 > 100 µM | PC-3 > 100 µM | SF-268 > 100 µM | SF-295 > 100 µM | SK-OV-3 > 100 µM | UACC-257 > 100 µM | UO-31 17.9 µM

COc1cc(/C=C/c2cc(/C=C/c3ccc(O)c(OC)c3)oc(=O)c2)ccc1O
active: DU-145 0.553 µM
inactive: BT-549 3.23 µM | CCRF-CEM 3.64 µM | COLO 205 13.1 µM | EKVX 3.1 µM | HT-29 2.84 µM | IGROV-1 4.67 µM | KM12 3.18 µM | M14 5.09 µM | MDA-MB-435 3.38 µM | NCI-H522 2.87 µM | OVCAR-4 3.84 µM | OVCAR-8 4.12 µM | PC-3 3.91 µM | SF-268 3.94 µM | SF-295 2.74 µM | SK-OV-3 9.04 µM | UACC-257 5.25 µM | UO-31 3.01 µM

O=C(O)CC12CC3CC(CC(O)(C3)C1)C2
inactive: BT-549 > 100 µM | COLO 205 > 100 µM | DU-145 > 100 µM | EKVX > 100 µM | HT-29 > 100 µM | IGROV-1 > 100 µM | KM12 > 100 µM | M14 > 100 µM | MDA-MB-435 > 100 µM | NCI-H522 27.7 µM | OVCAR-4 > 100 µM | OVCAR-8 > 100 µM | PC-3 > 100 µM | RXF 393 > 100 µM | SF-268 31 µM | SF-295 > 100 µM | SK-OV-3 > 100 µM | UACC-257 > 100 µM | UO-31 > 100 µM

CC1(C)CNC(=O)C2(CCCO2)CNC(C)(C)CNC(=O)C2(CCCO2)CN1 (stereo not drawn)
inactive: BT-549 > 10 µM | CCRF-CEM > 10 µM | COLO 205 > 10 µM | DU-145 > 10 µM | HT-29 > 10 µM | IGROV-1 > 10 µM | KM12 > 10 µM | M14 > 10 µM | MDA-MB-435 > 10 µM | NCI-H522 > 10 µM | OVCAR-4 > 10 µM | OVCAR-8 > 10 µM | PC-3 > 10 µM | SF-268 > 10 µM | SF-295 > 10 µM | SK-OV-3 > 10 µM | UACC-257 > 10 µM

CCOC(CI)O[C@@H]1C=C[C@H](OC(C)=O)C1 (stereo partly drawn)
inactive: BT-549 > 100 µM | CCRF-CEM > 100 µM | COLO 205 > 100 µM | DU-145 > 100 µM | EKVX > 100 µM | HT-29 > 100 µM | KM12 30.1 µM | M14 > 100 µM | MDA-MB-435 > 100 µM | OVCAR-4 > 100 µM | OVCAR-8 > 100 µM | PC-3 > 100 µM | RXF 393 > 100 µM | SF-268 > 100 µM | SF-295 > 100 µM | SK-OV-3 > 100 µM | UACC-257 > 100 µM | UO-31 > 100 µM

CCc1nn(CN2CCOCC2)c(=S)n1/N=C/c1ccc(-c2ccc(Cl)cc2)o1
inactive: BT-549 > 100 µM | DU-145 > 100 µM | EKVX > 100 µM | HT-29 > 100 µM | IGROV-1 > 100 µM | KM12 > 100 µM | M14 > 100 µM | MDA-MB-435 > 100 µM | NCI-H522 > 100 µM | OVCAR-4 > 100 µM | OVCAR-8 > 100 µM | PC-3 > 100 µM | RXF 393 > 100 µM | SF-268 > 100 µM | SF-295 > 100 µM | UACC-257 > 100 µM | UO-31 > 100 µM

CC(=O)OCC1OC(c2nnc(C)o2)=CC(OC(C)=O)C1OC(C)=O (stereo not drawn)
inactive: BT-549 > 100 µM | CCRF-CEM > 100 µM | COLO 205 > 100 µM | DU-145 > 100 µM | EKVX > 100 µM | HT-29 > 100 µM | IGROV-1 > 100 µM | KM12 > 100 µM | MDA-MB-435 > 100 µM | NCI-H522 > 100 µM | OVCAR-4 > 100 µM | OVCAR-8 > 100 µM | PC-3 > 100 µM | RXF 393 > 100 µM | SF-268 > 100 µM | SF-295 > 100 µM | UACC-257 > 100 µM | UO-31 > 100 µM

O=C1CCC(=O)N1CNc1ccc2c(c1)S(=O)(=O)c1ccccc1O2
inactive: BT-549 > 100 µM | CCRF-CEM > 100 µM | COLO 205 > 100 µM | DU-145 > 100 µM | EKVX 46 µM | HT-29 > 100 µM | IGROV-1 > 100 µM | KM12 > 100 µM | M14 > 100 µM | MDA-MB-435 > 100 µM | NCI-H522 > 100 µM | OVCAR-4 > 100 µM | OVCAR-8 > 100 µM | PC-3 > 100 µM | RXF 393 > 100 µM | SF-268 > 100 µM | SF-295 > 100 µM | UACC-257 > 100 µM | UO-31 > 100 µM

CC1N=C(c2ccccc2)OC1=O (stereo not drawn)
inactive: BT-549 > 100 µM | CCRF-CEM > 100 µM | COLO 205 > 100 µM | DU-145 > 100 µM | EKVX > 100 µM | HT-29 > 100 µM | IGROV-1 > 100 µM | KM12 > 100 µM | M14 > 100 µM | MDA-MB-435 > 100 µM | NCI-H522 > 100 µM | OVCAR-4 > 100 µM | OVCAR-8 > 100 µM | PC-3 > 100 µM | SF-268 > 100 µM | SF-295 > 100 µM | SK-OV-3 > 100 µM | UACC-257 > 100 µM | UO-31 > 100 µM

CC1=NC(=Cc2ccc(Cl)cc2)C(=O)N1n1c(-c2ccccc2)nc2ccccc2c1=O
inactive: BT-549 40.6 µM | CCRF-CEM 37.8 µM | COLO 205 32.4 µM | DU-145 38.1 µM | EKVX 27.2 µM | HT-29 37 µM | IGROV-1 31.6 µM | KM12 36.4 µM | M14 39.4 µM | MDA-MB-435 43.4 µM | NCI-H522 6.92 µM | OVCAR-8 39.4 µM | PC-3 24.3 µM | SF-268 51.9 µM | SF-295 40.9 µM | SK-OV-3 38.5 µM | UACC-257 25 µM | UO-31 37.2 µM

CC(C)(C)N/C(N)=N/C#N
inactive: BT-549 > 100 µM | CCRF-CEM > 100 µM | COLO 205 > 100 µM | DU-145 > 100 µM | EKVX > 100 µM | HT-29 > 100 µM | IGROV-1 > 100 µM | M14 > 100 µM | MDA-MB-435 > 100 µM | OVCAR-4 > 100 µM | OVCAR-8 > 100 µM | PC-3 > 100 µM | RXF 393 > 100 µM | SF-268 > 100 µM | SK-OV-3 > 100 µM | UACC-257 > 100 µM | UO-31 > 100 µM

CSc1ncc2c(C#N)c3sc4ccccc4n3c(=O)c2n1
inactive: BT-549 > 100 µM | CCRF-CEM > 100 µM | COLO 205 > 100 µM | DU-145 > 100 µM | EKVX > 100 µM | HT-29 > 100 µM | IGROV-1 > 100 µM | KM12 54.2 µM | M14 > 100 µM | MDA-MB-435 > 100 µM | OVCAR-4 45.8 µM | OVCAR-8 26.1 µM | PC-3 > 100 µM | RXF 393 > 100 µM | SF-268 16.1 µM | SF-295 > 100 µM | SK-OV-3 80.7 µM | UACC-257 > 100 µM | UO-31 > 100 µM

O=C(Cn1c(C(=O)/C=C/c2ccc(Cl)c(Cl)c2)nc2ccccc21)c1ccccc1
inactive: BT-549 32.1 µM | CCRF-CEM 6.92 µM | COLO 205 17.8 µM | DU-145 32.9 µM | EKVX 14.4 µM | HT-29 16 µM | IGROV-1 22.6 µM | KM12 19.6 µM | M14 23.2 µM | MDA-MB-435 19.1 µM | OVCAR-4 25.6 µM | PC-3 29.3 µM | RXF 393 24 µM | SF-268 45.4 µM | SK-OV-3 28.6 µM | UACC-257 27.7 µM | UO-31 24.8 µM
